Legend:
[1] = system: advanced solid tumor types; conditions: patients with relapsed/refractory BC, SCLC, NSCLC, HNSCC, GE adenocarcinoma; activity in all except NSCLC; cited from earlier work
[2] = system: advanced solid tumor types; experiment: association of somatically mutated genes/pathways (whole exome sequencing) with response to alisertib in trial patients; assay type: in vivo, human; conditions: for est: HR (hazard ratio) for progression free survival (PFS): adjusted by baseline, stratified by indication; for est: mean % best tumor size change between mutant and WT groups: all five tumor types, adjusted by tumor indication and tumor baseline size
From the text: The best tumor size change and progression-free survival (PFS) of the patients were used as the efficacy response endpoints.
The genomic DNA was isolated from 47 patients with 2-4 slides of 5 micron thickness from archived tumor biopsies with Qiagen FFPE kit (Qiagen, Germany). Genomic DNA from blood samples were extracted utilizing blood DNA kit (Qiagen, Germany). Tumor-normal (blood) paired DNAs were sequenced by whole exome DNA sequencing employing Agilent SureSelect exome capture and Illumina Hi-Seq™ technologies.
The downstream analysis was designed to identify potential biomarkers predictive of drug response using the high-confidence mutations obtained from the middle-stream analysis. A linear regression model and Cox proportional hazard model were used for best tumor size change and PFS as endpoints, respectively. Tumor type was considered as a covariate in both models to adjust its confounding effect. In case of linear regression for best tumor size change as an endpoint, baseline tumor size was added as an additional covariate since baseline tumor size is […] correlated with the endpoint. In the following linear regression equation, y=β0+β1x+βc1c1+βc2c2+ε, y, x, c1, c2, and c represent the best tumor size change, a single gene mutation status, tumor type, baseline tumor size, and random error, respectively. When the gene harbors high-confidence mutation(s), x becomes 1; otherwise, it is 0. The 1st covariate c1 was converted into five binary variables to represent the five different tumor types and the 2nd covariate c2 is a continuous variable. As a result, the coefficient fi indicates the contribution of the mutated gene to sensitivity or resistance to alisertib treatment after adjusting the potential confounding effects of the covariates. A p-value was computed for testing the null hypothesis β1=0. Since multiple genes were tested using these models and the p-values were corrected for multiple hypothesis testing using false discovery rate (FDR).
A similar approach was used for the pathway association analysis. A pathway can be defined as a group of genes that are known to be interacting together for a common biological function. […] Two types of statistical tests were selected in order to test the degree of association of mutations on the pathway level and alisertib treatment outcome, particularly best tumor size change. […] A linear regression model was built using this binary variable as an independent variable and tumor type and baseline tumor size were used as covariates, similar to the equation used for gene-level association. Secondly, sequence kernel association tests (SKAT) were run to account for cases where individual mutated genes in a pathway contribute differently to drug sensitivity or resistance. […] As the two methods, linear regression and SKAT, provide different angles in terms of association between pathways and alisertib response, the smaller p-value (the best of the two tests, BOT from here on) was selected as a representative p-value for each pathway. The p-values of the pathways were subjected to multiplicity adjustments in order to control the type I error of the statistical tests.
The Cox proportional hazard models were used to see potential association between mutated genes/pathways and progression-free survival (PFS).
For single gene-level association, the Benjamini & Hochberg (BH) method was used to compute FDR (also known as q-value). For pathway-level association, as multiple statistical association analyses (linear regression, SKAT and BOT) were conducted for each pathway, and pathways are often correlated through commonly present genes, multiplicity adjustment becomes more complicated. To address these challenges, a re-sampling-based multiplicity adjustment was implemented. The null distributions of p-values from pathway association tests were simulated using parametric bootstrapping. […]

Q: Which “single agent antitumor activity” value [1] does the source give for `COc1cc(Nc2ncc3c(n2)-c2ccc(Cl)cc2C(c2c(F)cccc2OC)=NC3)ccc1C(=O)O` [alisertib, 4-{[9-chloro-7-(2-fluoro-6-methoxyphenyl)-5H-pyrimido[5,4-d][2]benzazepin-2-yl]amino}-2-methoxybenzoic acid] here?
A: clinically meaningful antitumor activity in four of the five solid tumor types

Q: What about the “est: HR (hazard ratio) for progression free survival (PFS)” value ([2]; EP300 mutated vs WT) of the same compound?
A: 0.271

Q: And the “est: mean % best tumor size change between mutant and WT groups” value ([2]; FAT1 mutated)?
A: −39.70%

Q: What about the “est: mean % best tumor size change between mutant and WT groups” value ([2]; FBXW7 mutated) of the same compound?
A: 41.96%

Q: And the “est: HR (hazard ratio) for progression free survival (PFS)” value ([2]; MLL3 mutated vs WT)?
A: 0.129

Q: And the “est: mean % best tumor size change between mutant and WT groups” value ([2]; MLL3 mutated)?
A: −28.84%

Q: What about the “response (best tumor size change) of patients with mutated pathway versus wild type” value ([2]; patients with mutated WNT or Hippo signaling pathways vs WT) of the same compound?
A: respond more favorably
